# Where a SMILES comes first, the peptide text is derived from it. [ ]: non-standard residue; d: D form. The star is where a group is joined. Sta = CC(C)C[C@H](N)[C@@H](O)CC(=O)O; Isovaleryl = CC(C)CC(=O)*
# What was measured:
# [1] = system: cysteine-dependent protease of the G4 peak; experiment: Protease activity of G4 peak fractions (Enzcheck kit, BODIPYfl-caséine fluorometry) with or without known protease inhibitors, 5 mM cysteine; format: biochemical, human
# Description: The protease activities contained in the fractions obtained by transporting over the Superdex G75 HR10/30® exclusion column were assayed by fluorometry using the Enzcheck® kit (Molecular Probes).
# This kit is a rapid and simple method of measuring the protease activities, with no precipitation or separation phase and is therefore suitable for rapid screening of the protease activities of the different fractions. This protocol employs, as substrate therefor, BODIPYfl-caséine® which becomes fluorescent after enzymatic digestion. The fluorescence thus liberated is directly proportional to the protease activity contained in the sample. The fluorescence was measured on the LS50B spectrofluorometer, Perkin Elmer, with an excitation wavelength of 485 nm (slit of 2.5 nm), an emission wavelength of 535 nm (slit of 8 nm) and an integration time of 1 second per well.
# The assays were carried out in the presence or absence of cysteine at a final concentration of 5 mM so as to detect possible cysteine protease activities.
# In order to better characterize the cysteine-dependent protease isolated above, tests of inhibition by known protease inhibitors were carried out. The measurements were carried out in an identical manner to the preceding measurements in the presence of cysteine at a final concentration of 5 mM and in the presence or absence (control) of the inhibitor considered.
# cathepsins L = details: in the presence of urea; cited from earlier work
# cathepsins D = details: in the presence of urea; cited from earlier work
# L cathepsins = L cathepsins (Homo sapiens, UniProt P07711); details: cited from earlier work
# Sequence of L cathepsins (P07711 114-333): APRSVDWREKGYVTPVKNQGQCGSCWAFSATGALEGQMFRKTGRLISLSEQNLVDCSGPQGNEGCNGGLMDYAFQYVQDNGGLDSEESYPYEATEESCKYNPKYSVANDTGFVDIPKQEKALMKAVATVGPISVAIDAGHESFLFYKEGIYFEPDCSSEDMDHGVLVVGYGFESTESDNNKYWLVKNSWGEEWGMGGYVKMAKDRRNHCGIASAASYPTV
molecule,measurement,setting,value
CC(C)C[C@H](NC(=O)[C@H]1O[C@@H]1C(=O)O)C(=O)NCCCCN=C(N)N [E 64],inhibition of the activity of the cysteine-dependent protease of the G4 peak,"[1]; E 64 at 1.4 μM, 5 mM cysteine, acetate buffer pH 5.0",about 71%
"CCCNC(=O)[C@H]1O[C@@H]1C(=O)N[C@H](C(=O)N1CCC[C@H]1C(=O)O)[C@@H](C)CC [Inhibitor CA 074, CA 074]",effect on the activity profile of the cysteine-dependent protease of peak G4,"[1]; 1 μM, 5 mM cysteine","practically, did not affect the activity profile"
CC(=O)N[C@@H](CC(C)C)C(=O)N[C@@H](CC(C)C)C(=O)N[C@H](C=O)CCCNC(=N)N [Leupeptin],reduction of the protease activity of G4,"[1]; leupeptin at 1 μM, in the presence of cysteine",about 41%
CC(C)CC(=O)N[C@H](C(=O)N[C@H](C(=O)N[C@@H](CC(C)C)[C@@H](O)CC(=O)N[C@@H](C)C(=O)N[C@@H](CC(C)C)[C@@H](O)CC(=O)O)C(C)C)C(C)C [Pepstatin] (Isovaleryl-VV[Sta]A[Sta]-OH),action on G4 protease activity,"[1]; pepstatin at 1 μM, 5 mM cysteine",without action
"CC(C)C[C@H](NC(=O)[C@@H](NC(=O)N[C@@H](Cc1ccccc1)C(=O)O)[C@@H]1CCN=C(N)N1)C(=O)N[C@H](C=O)Cc1ccccc1 [chymostatin, Chymostatin]",inhibition of the cysteine-dependent protease of peak G4,"[1]; chymostatin at 2.5 μM, 5 mM cysteine",more than 50%
"NC(N)=O [urea, Urea]",factor by which cathepsin L activity is multiplied,cathepsins L,2.5
same,factor by which cathepsin D activity is multiplied,cathepsins D,6
Z(phe-arg 2R110),sensitivity to the action of the L cathepsins relative to the B cathepsins,L cathepsins,850 times

# — patent US6737055B2, “Isolated cathepsin L type cysteine proteases and reducing intercorneocyte cohesion/promoting desquamation therewith” (Societe l'Oreal S.A., priority 1997, dated 2004)
